Earlier results on one molecule are cited in patent publication US20120196858A1, “METHOD OF PROMOTING APOPTOSIS AND INHIBITING METASTASIS” (Poniard Pharmaceuticals ,Inc., priority 2009, published 2012).

The series concerns lung carcinoma xenografts. The conditions noted are these: previous studies; cited from earlier work.

Consider `CN(c1ncccc1CNc1nc(Nc2ccc3c(c2)CC(=O)N3)ncc1C(F)(F)F)S(C)(=O)=O` [PF-562,271], for which the tumor microvessel density entry is recorded as “reduced tumor microvessel density”.
